According to patent US20050209278A1, “Piperidinyl- and piperazinyl-sulfonylmethyl hydroxamic acids and their use as protease inhibitors” (priority 2002, published 2005):
Values joined by “and” are separate entries in the source; they are usually repeats but may differ in a detail not shown here. Equal entries are not always repeated.

Target: T1, MMP-1 (Homo sapiens, UniProt P03956)
T1 construct: made in house; host or cells: MMP-1-transfected HT-1080 cells (spent media)
T1 sequence (P03956 100-469): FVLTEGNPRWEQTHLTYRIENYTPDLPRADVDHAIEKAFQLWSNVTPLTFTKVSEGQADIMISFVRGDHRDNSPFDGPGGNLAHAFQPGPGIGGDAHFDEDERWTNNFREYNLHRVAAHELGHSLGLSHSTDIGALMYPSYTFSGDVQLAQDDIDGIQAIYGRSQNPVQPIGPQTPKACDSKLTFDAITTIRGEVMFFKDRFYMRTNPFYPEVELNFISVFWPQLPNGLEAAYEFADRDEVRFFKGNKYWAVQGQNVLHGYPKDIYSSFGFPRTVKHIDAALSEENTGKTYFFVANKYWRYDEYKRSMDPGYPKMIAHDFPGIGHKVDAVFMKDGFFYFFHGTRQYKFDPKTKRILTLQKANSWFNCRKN
Assay: In vitro MMP inhibition, Ki determination (fluorogenic substrate II)
Type: biochemical
Settings: value outside parentheses; read-out: MMP-1 Ki

Q: Which Ki does the source give for `O=C(NO)C1(S(=O)(=O)N2CCC(c3ccc(CCCC(F)(F)F)cn3)CC2)CCOCC1` [Example 338] here?
A: The Ki was 9.86 µM.

Q: How did the Ki turn out when `O=C(NO)C1(S(=O)(=O)N2CCN(c3ccc(-c4cccc(OC(F)(F)F)c4)cn3)CC2)CCOCC1` [Example 319] was run?
A: Its Ki is > 10 µM.

Q: With `O=C(NO)C1(S(=O)(=O)N2CCC(c3ccc(OC(F)(F)C(F)F)cc3)CC2)CCOCC1` [Example 337] as the compound, how does the Ki read?
A: Its Ki is 3.29 µM.

Q: `O=C(NO)C1(S(=O)(=O)N2CCC(COCC(F)(F)C(F)(F)C(F)(F)C(F)F)CC2)CCOCC1` [Example 378] was tested. Which Ki did it give?
A: Its Ki is > 10 µM.

Q: How did the Ki turn out when `O=C(NO)C1(S(=O)(=O)N2CCC(c3ccc(CCC(F)(F)C(F)(F)F)cn3)CC2)CCOCC1` [Example 340] was run?
A: Its Ki is 5.86 µM.

Q: `N#Cc1cccc(-c2cnc(N3CCN(S(=O)(=O)C4(C(=O)NO)CCOCC4)CC3)s2)c1` [Example 384] was tested. Which Ki did it give?
A: The Ki was 0.266 µM.

Q: How did the Ki turn out when `O=C(NO)C1(S(=O)(=O)N2CCN(c3ccc(-c4ccc(OC(F)(F)F)cc4)cc3)CC2)CCOCC1` [Example 327] was run?
A: Its Ki is 7.3 µM.

Q: Which Ki does the source give for `O=C(NO)C1(S(=O)(=O)N2CCC(c3ccc(OCC(F)(F)C(F)F)cc3)CC2)CCN(C2CC2)CC1` [Example 350] here?
A: Its Ki is > 10 µM.

Q: Which Ki does the source give for `CCN1CCC(C(=O)NO)(S(=O)(=O)N2CCN(c3ccc(-c4ccccc4)c(F)c3)CC2)CC1` [Example 341] here?
A: The Ki was > 10 µM.

Q: `CC(C)(C)c1ccc(-c2cnc(N3CCN(S(=O)(=O)C4(C(=O)NO)CCOCC4)CC3)s2)cc1` [Example 347] was tested. Which Ki did it give?
A: Its Ki is 2.77 µM.

Q: How did the Ki turn out when `O=C(NO)C1(S(=O)(=O)N2CCC(c3ccc(-c4cccnc4)cn3)CC2)CCOCC1` [Example 390] was run?
A: Its Ki is 7.88 µM.

Q: For `CCCCc1ccc(C2CCN(S(=O)(=O)C3(C(=O)NO)CCNCC3)CC2)nc1` [Example 388], which Ki is on record?
A: Its Ki is > 10 µM.

Q: Which Ki does the source give for `COc1ccccc1-c1ccc(N2CCN(S(=O)(=O)C3(C(=O)NO)CCOCC3)CC2)nc1` [Example 318] here?
A: The Ki was > 10 µM.

Q: With `Cc1ccc(-c2cnc(N3CCN(S(=O)(=O)C4(C(=O)NO)CCOCC4)CC3)s2)cc1` [Example 344] as the compound, how does the Ki read?
A: The Ki was 3.52 µM.

Q: `O=C(NO)C1(S(=O)(=O)N2CCC(c3ccc(OCC(F)(F)F)cc3)CC2)CCOCC1` [Example 357] was tested. Which Ki did it give?
A: The Ki was 3.78 µM.

Q: Which Ki does the source give for `O=C(NO)C1(S(=O)(=O)N2CCN(c3ccc(CCCC(F)(F)F)cn3)CC2)CCOCC1` [Example 358] here?
A: The Ki was > 10 µM.

Q: For `O=C(NO)C1(S(=O)(=O)N2CCN(c3ncc(-c4cccc(-c5ccccc5)c4)s3)CC2)CCOCC1` [Example 365], which Ki is on record?
A: Its Ki is > 10 µM.

Q: How did the Ki turn out when `O=C(NO)C1(S(=O)(=O)N2CCN(c3ccc(-c4ccccc4)cn3)CC2)CCOCC1` [Example 372] was run?
A: The Ki was 0.611 µM and 0.795 µM.

Q: Which Ki does the source give for `CCCCCc1cccc(N2CCN(S(=O)(=O)C3(C(=O)NO)CCOCC3)CC2)c1` [Example 356] here?
A: Its Ki is > 10 µM.

Q: Which Ki does the source give for `O=C(NO)C1(S(=O)(=O)N2CCN(c3ncc(-c4cccnc4)s3)CC2)CCOCC1` [Example 382] here?
A: The Ki was 2.69 µM.

Q: Which Ki does the source give for `O=C(NO)C1(S(=O)(=O)N2CCN(c3cnn(-c4ccccc4)c(=O)c3Cl)CC2)CCOCC1` [Example 329] here?
A: The Ki was > 10 µM.

Q: For `O=C(NO)C1(S(=O)(=O)N2CCN(c3ccc(-c4ccc(F)cc4F)cn3)CC2)CCOCC1` [Example 316], which Ki is on record?
A: The Ki was 5.52 µM.

Q: With `COc1ccc(-c2cnc(N3CCN(S(=O)(=O)C4(C(=O)NO)CCOCC4)CC3)s2)cc1OC` [Example 371] as the compound, how does the Ki read?
A: The Ki was 8.25 µM.

Q: For `O=C(NO)C1(S(=O)(=O)N2CCN(c3ccc(Br)cn3)CC2)CCOCC1` [Example 331], which Ki is on record?
A: Its Ki is 0.279 µM.

Q: Which Ki does the source give for `O=C(NO)C1(S(=O)(=O)N2CCN(c3ccc(CCCC(F)(F)F)c(F)c3)CC2)CCOCC1` [Example 389] here?
A: Its Ki is > 10 µM.

Q: Which Ki does the source give for `O=C(NO)C1(S(=O)(=O)N2CCN(c3ncc(-c4ccc(O)cc4)s3)CC2)CCOCC1` [Example 368] here?
A: Its Ki is 3.35 µM.

Q: Which Ki does the source give for `Cc1cccc(-c2cnc(N3CCN(S(=O)(=O)C4(C(=O)NO)CCOCC4)CC3)s2)c1` [Example 370] here?
A: The Ki was 5.74 µM.

Q: Which Ki does the source give for `Cc1ccccc1-c1cnc(N2CCN(S(=O)(=O)C3(C(=O)NO)CCOCC3)CC2)s1` [Example 348] here?
A: The Ki was > 10 µM.

Q: Which Ki does the source give for `O=C(NO)C1(S(=O)(=O)N2CCN(c3ncc(/C=C/c4ccccc4)s3)CC2)CCOCC1` [Example 361] here?
A: The Ki was > 2.5 µM.

Q: With `O=C(NO)C1(S(=O)(=O)N2CCC(c3ccc(CCCC(F)(F)F)cc3)CC2)CCN(C2CC2)CC1` [Example 351] as the compound, how does the Ki read?
A: Its Ki is > 10 µM.
